Test results published in patent US6737383B1, “Herbicidal oxadiazolidines” (priority 1999, dated 2004).

Tests used:
purple nutsedge = test: Test B pre/postemergence purple nutsedge; format: in vivo, Cyperus rotundus
Method in brief: (§1)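 Response is a visual 0-to-10 score relative to untreated plants, where 0 means no effect and 10 means complete control, taken twelve to sixteen days after application. Treatments went onto soil at planting and onto foliage of 1- to 4-leaf plants, using a surfactant-containing non-phytotoxic solvent.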

sugar beet = test: Test B pre/postemergence sugar beet; format: in vivo, Beta vulgaris
Method in brief: as §1

giant foxtail = test: Test B pre/postemergence giant foxtail; format: in vivo, Setaria faberii
Method in brief: as §1

bedstraw = test: Test B pre/postemergence bedstraw; format: in vivo, Galium aparine
Method in brief: as §1

blackgrass = test: Test B pre/postemergence blackgrass; format: in vivo, Alopecurus myosuroides
Method in brief: as §1

crabgrass = test: Test B pre/postemergence crabgrass; format: in vivo, Digitaria sanguinalis
Method in brief: as §1

morningglory = test: Test B pre/postemergence morningglory; format: in vivo, Ipomoea hederacea
Method in brief: as §1

cocklebur = test: Test B pre/postemergence cocklebur; format: in vivo, Xanthium strumarium
Method in brief: as §1

surinam grass = test: Test B pre/postemergence surinam grass; format: in vivo, Brachiaria decumbens
Method in brief: as §1

pigweed = test: Test B pre/postemergence pigweed; format: in vivo, Amaranthus retroflexus
Method in brief: as §1

wild oat = test: Test B pre/postemergence wild oat; format: in vivo, Avena fatua
Method in brief: as §1

duck salad = test: Test B flood test duck salad; format: in vivo, Heteranthera limosa
Method in brief: (§2)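 Flood test on plants grown to the 2-leaf stage; treated plants kept in greenhouse twelve to sixteen days, then visually rated against controls on a 0 (no effect) to 10 (complete control) scale.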

smallflower flatsedge = test: Test B flood test smallflower flatsedge; format: in vivo, Cyperus difformis
Method in brief: as §2

rice = test: Test B flood test rice; format: in vivo, Oryza sativa
Method in brief: as §2

soybean = test: Test B pre/postemergence soybean; format: in vivo, Glycine max
Method in brief: as §1

corn = test: Test B pre/postemergence corn; format: in vivo, Zea mays
Method in brief: as §1

[1] = Preemergence, Rate 62 g/ha, scale of 0 to 10 where 0 is no effect and 10 is complete control
[2] = Preemergence, Rate 250 g/ha, scale of 0 to 10 where 0 is no effect and 10 is complete control
[3] = Preemergence, Rate 500 g/ha, scale of 0 to 10 where 0 is no effect and 10 is complete control
[4] = Rate 62 g/ha, Postemergence, scale 0 to 10 (0 no effect, 10 complete control)
[5] = Rate 125 g/ha, Postemergence, scale of 0 to 10 where 0 is no effect and 10 is complete control
[6] = Rate 250 g/ha, Postemergence, scale of 0 to 10 where 0 is no effect and 10 is complete control
[7] = Rate 500 g/ha, Postemergence, scale 0 to 10, 0 no effect, 10 complete control
[8] = Rate 62 g/ha, headed Pre-emergence (flood test species), scale 0 to 10 (0 no effect, 10 complete control)
[9] = Rate 125 g/ha, Pre-emergence, flood test species, scale 0 to 10 where 0 is no effect and 10 is complete control
[10] = Rate 250 g/ha, Pre-emergence, flood-test species, scale 0 to 10, 0 is no effect, 10 is complete control
[11] = Rate 500 g/ha, Pre-emergence, flood test species, scale 0 to 10 (0 no effect, 10 complete control)

CCN(C(=O)n1oc(=O)n(Cc2ccco2)c1=O)C1CCCCC1 [Compound 312]
3: Plant response rating, Soybean (soybean; [6])
0: Nutsedge plant response rating (purple nutsedge; [1]) | Nutsedge plant response rating (0 to 10 scale) (purple nutsedge; Preemergence, Rate 125 g/ha) | Nutsedge plant response rating (purple nutsedge; [2]) | Nutsedge plant response rating (purple nutsedge; [3]) | Nutsedge plant response rating (purple nutsedge; [4]) | Nutsedge plant response rating (purple nutsedge; [5]) | Plant response rating, Nutsedge (purple nutsedge; [6]) | Sugarbeets plant response rating (sugar beet; [1]) | Sugarbeets plant response rating (0 to 10 scale) (sugar beet; Preemergence, Rate 125 g/ha) | Sugarbeets plant response rating (sugar beet; [2]) | Sugarbeets plant response rating (sugar beet; [3]) | Sugarbeets plant response rating (sugar beet; [4]) | Sugarbeets plant response rating (sugar beet; [5]) | Plant response rating, Sugarbeets (sugar beet; [6]) | Giant foxtail plant response rating (giant foxtail; [1]) | Giant foxtail plant response rating (0 to 10 scale) (giant foxtail; Preemergence, Rate 125 g/ha) | Giant foxtail plant response rating (giant foxtail; [2]) | Giant foxtail plant response rating (giant foxtail; [3]) | Giant foxtail plant response rating (giant foxtail; [4]) | Giant foxtail plant response rating (giant foxtail; [5]) | Plant response rating, Giant foxtail (giant foxtail; [6]) | Bedstraw plant response rating (bedstraw; [1]) | Bedstraw plant response rating (0 to 10 scale) (bedstraw; Preemergence, Rate 125 g/ha) | Bedstraw plant response rating (bedstraw; [2]) | Bedstraw plant response rating (bedstraw; [3]) | Bedstraw plant response rating (bedstraw; [4]) | Bedstraw plant response rating (bedstraw; [5]) | Plant response rating, Bedstraw (bedstraw; [6]) | Blackgrass plant response rating (blackgrass; [1]) | Blackgrass plant response rating (0 to 10 scale) (blackgrass; Preemergence, Rate 125 g/ha) | Blackgrass plant response rating (blackgrass; [2]) | Blackgrass plant response rating (blackgrass; [3]) | Blackgrass plant response rating (blackgrass; [4]) | Blackgrass plant response rating (blackgrass; [5]) | Plant response rating, Blackgrass (blackgrass; [6]) | Blackgrass plant response rating (blackgrass; [7]) | Crabgrass plant response rating (crabgrass; [1]) | Crabgrass plant response rating (0 to 10 scale) (crabgrass; Preemergence, Rate 125 g/ha) | Crabgrass plant response rating (crabgrass; [2]) | Crabgrass plant response rating (crabgrass; [3]) | Crabgrass plant response rating (crabgrass; [4]) | Crabgrass plant response rating (crabgrass; [5]) | Plant response rating, Crabgrass (crabgrass; [6]) | Morningglory plant response rating (morningglory; [1]) | Morningglory plant response rating (0 to 10 scale) (morningglory; Preemergence, Rate 125 g/ha) | Morningglory plant response rating (morningglory; [2]) | Morningglory plant response rating (morningglory; [3]) | Morningglory plant response rating (morningglory; [4]) | Morningglory plant response rating (morningglory; [5]) | Plant response rating, Morningglory (morningglory; [6]) | Cocklebur plant response rating (cocklebur; [1]) | Cocklebur plant response rating (0 to 10 scale) (cocklebur; Preemergence, Rate 125 g/ha) | Cocklebur plant response rating (cocklebur; [2]) | Cocklebur plant response rating (cocklebur; [3]) | Cocklebur plant response rating (cocklebur; [4]) | Cocklebur plant response rating (cocklebur; [5]) | Plant response rating, Cocklebur (cocklebur; [6]) | Cocklebur plant response rating (cocklebur; [7]) | B. signalgrass plant response rating (surinam grass; [1]) | B. signalgrass plant response rating (0 to 10 scale, 0 is no effect, 10 is complete control) (surinam grass; Preemergence, Rate 125 g/ha) | B. signalgrass plant response rating (surinam grass; [2]) | B. signalgrass plant response rating (surinam grass; [3]) | B. signalgrass plant response rating (surinam grass; [4]) | B. signalgrass plant response rating (surinam grass; [5]) | Plant response rating, B. signalgrass (surinam grass; [6]) | B. signalgrass plant response rating (surinam grass; [7]) | Redroot pigweed plant response rating (pigweed; [1]) | Redroot pigweed plant response rating (0 to 10 scale) (pigweed; Preemergence, Rate 125 g/ha) | Redroot pigweed plant response rating (pigweed; [2]) | Redroot pigweed plant response rating (pigweed; [3]) | Redroot pigweed plant response rating (pigweed; [4]) | Redroot pigweed plant response rating (pigweed; [5]) | Plant response rating, Redroot pigweed (pigweed; [6]) | Wild oats plant response rating (wild oat; [1]) | Wild oats plant response rating (0 to 10 scale) (wild oat; Preemergence, Rate 125 g/ha) | Wild oats plant response rating (wild oat; [2]) | Wild oats plant response rating (wild oat; [3]) | Wild oats plant response rating (wild oat; [4]) | Wild oats plant response rating (wild oat; [5]) | Plant response rating, Wild oats (wild oat; [6]) | Ducksalad plant response rating (duck salad; [8]) | Ducksalad plant response rating (duck salad; [9]) | Ducksalad plant response rating (duck salad; [10]) | Ducksalad plant response rating (duck salad; [11]) | S. Flatsedge plant response rating (smallflower flatsedge; [8]) | S. Flatsedge plant response rating (smallflower flatsedge; [9]) | S. Flatsedge plant response rating (smallflower flatsedge; [10]) | S. Flatsedge plant response rating (smallflower flatsedge; [11]) | Rice plant response rating (rice; [8]) | Rice plant response rating (rice; [9]) | Rice plant response rating (rice; [10]) | Rice plant response rating (rice; [11]) | Soybean plant response rating (soybean; [1]) | Soybean plant response rating (0 to 10 scale) (soybean; Preemergence, Rate 125 g/ha) | Soybean plant response rating (soybean; [2]) | Soybean plant response rating (soybean; [3]) | Corn plant response rating (corn; [1]) | Corn plant response rating (0 to 10 scale) (corn; Preemergence, Rate 125 g/ha) | Corn plant response rating (corn; [2]) | Corn plant response rating (corn; [3]) | Corn plant response rating (corn; [4]) | Corn plant response rating (corn; [5]) | Plant response rating, Corn (corn; [6]) | Corn plant response rating (corn; [7])
2: Soybean plant response rating (soybean; [4]) | Soybean plant response rating (soybean; [5])
